Read-outs that look alike come from different tables or passages of the source. Where a SMILES comes first, the peptide text is derived from it. Bridges are numbered along the chain shown (N, C = ends). Where no end group is shown, it is not given here. [ ]: non-standard residue; d: D form. The star is where a group is joined. Val(Nα-amidino) = CC(C)[C@H](NC(=N)N)C(=O)*; Gly(cPent) = N[C@H](C(=O)O)C1CCCC1; Hyp = O=C(O)[C@@H]1C[C@@H](O)CN1; Pen = CC(C)(S)[C@H](N)C(=O)O; dDab = NCC[C@@H](N)C(=O)O; Orn = NCCC[C@H](N)C(=O)O; Dab = NCC[C@H](N)C(=O)O
Assays:
Format in all cases: cell-based
[1] = test system: Escherichia coli ATCC 25922
Method in brief: (§1)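 The MIC is the lowest peptide concentration, in μg/mL, with no visible growth after 18-20 h incubation at 35 °C. Serial two-fold peptide dilutions in water with 0.002% P-80 final were added to bacteria in cation-adjusted MHII broth, about 5×10^5 CFU/mL, following modified CLSI microdilution.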

[2] = test system: Escherichia coli MCR-1 Af 45
Method in brief: as §1

[3] = test system: Klebsiella pneumoniae SSI3010
Method in brief: as §1

[4] = test system: human red blood cells (hRBC)
Method in brief: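 Percent hemolysis derived from OD540 of supernatants relative to full lysis by 2.5% Triton X-100 (PBS baseline). Washed fresh human erythrocytes (20% v/v) were exposed to 200 μg/mL peptide for 1 h at 37 °C with shaking.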

[5] = red cells of human, 1 h, 200 μg/mL
[6] = Mueller-Hinton broth II, no visible growth after 18-20 hours at 35° C.

Compound | Escherichia coli ATCC 25922 MIC ([1]; ATCC 25922) [µg/mL] | Escherichia coli MCR-1 Af45 MIC ([2]; MCR-1 Af 45) [µg/mL] | Klebsiella pneumoniae SSI3010 MIC ([3]; SSI3010) [µg/mL] | Escherichia coli ATCC 25922 MIC [1, 6] [µg/mL] | Escherichia coli MCR-1 Af45 MIC [2, 6] [µg/mL] | Klebsiella pneumoniae SSI3010 MIC [3, 6] [µg/mL] | Hemolysis at 0.2 g/L [4, 5] [%] | Hemolysis at 0.2 g/L [4] [%]
CC[C@H](C)[C@H](NC(=O)[C@@H]1C[C@@H](O)CN1C(=O)[C@@H](NC(=N)N)C(C)C)C(=O)N[C@@H]1C(=O)N[C@@H](Cc2ccc(O)cc2)C(=O)N[C@@H]([C@@H](C)O)C(=O)N[C@@H](CC(N)=O)C(=O)N[C@@H](CCCNC(=N)N)C(=O)N[C@@H](CCN)C(=O)N[C@@H]([C@@H](C)O)C(=O)N[C@H](CCN)C(=O)N[C@@H](CCCN)C(=O)N[C@@H](CCN)C(=O)N[C@@H]([C@@H](C)O)C(=O)N[C@H](C(=O)N[C@@H](Cc2ccc(O)cc2)C(=O)O)CSSC1(C)C [Example 133, Gua-Val-Hyp-Ile-Pen-Tyr-Thr-Asn-Arg-Dab-Thr-^DDab-Orn-Dab-Thr-Cys-Tyr] ({Val(Nα-amidino)}-[Hyp]I[Pen]YTNR[Dab]T[dDab][Orn][Dab]TCY-OH; disulfide 3-14) | 0.25 | 0.125 | 0.25 | – | – | – | <1 | –
CC(C)[C@H](NC(=N)N)C(=O)N1C[C@H](O)C[C@H]1C(=O)N[C@H](C(=O)N[C@@H]1C(=O)N[C@@H](Cc2ccc(O)cc2)C(=O)N[C@@H]([C@@H](C)O)C(=O)N[C@@H](CC(N)=O)C(=O)N[C@@H](CCCNC(=N)N)C(=O)N[C@@H](CCN)C(=O)N[C@@H]([C@@H](C)O)C(=O)N[C@H](CCN)C(=O)N[C@@H](CO)C(=O)N[C@@H](CCN)C(=O)N[C@@H](CCN)C(=O)N[C@H](C(=O)N[C@@H](Cc2ccc(O)cc2)C(=O)O)CSSC1(C)C)C1CCCC1 [Example 134, Gua-Val-Hyp-Cpg-Pen-Tyr-Thr-Asn-Arg-Dab-Thr-^DDab-Ser-Dab-Dab-Cys-Tyr] ({Val(Nα-amidino)}-[Hyp][Gly(cPent)][Pen]YTNR[Dab]T[dDab]S[Dab][Dab]CY-OH; disulfide 3-14) | 0.125 | 0.125 | 0.25 | – | – | – | <1 | –
CC[C@H](C)[C@H](NC(=O)[C@@H]1C[C@@H](O)CN1C(=O)[C@@H](NC(=N)N)C(C)C)C(=O)N[C@H]1CCNC(=O)CC[C@@H](C(=O)N[C@@H](Cc2ccc(O)cc2)C(=O)O)NC(=O)[C@H](CCN)NC(=O)[C@H](CCN)NC(=O)[C@H](CCN)NC(=O)[C@@H](CCN)NC(=O)[C@H]([C@@H](C)O)NC(=O)[C@H](CCN)NC(=O)[C@H](CCCNC(=N)N)NC(=O)[C@H](CC(N)=O)NC(=O)[C@H]([C@@H](C)O)NC(=O)[C@H](Cc2ccc(O)cc2)NC1=O [Example 135, Gua-Val-Hyp-Ile-Dab-Tyr-Thr-Asn-Arg-Dab-Thr-^DDab-Dab-Dab-Dab-Glu-Tyr] ({Val(Nα-amidino)}-[Hyp]I[Dab]YTNR[Dab]T[dDab][Dab][Dab][Dab]EY-OH; lactam 3-14) | 0.125 | 0.0625 | 0.125 | – | – | – | <1 | –

Second part, led by results:

Escherichia coli ATCC 25922 MIC ([1]; ATCC 25922) [µg/mL] | Escherichia coli MCR-1 Af45 MIC ([2]; MCR-1 Af 45) [µg/mL] | Klebsiella pneumoniae SSI3010 MIC ([3]; SSI3010) [µg/mL] | Escherichia coli ATCC 25922 MIC [1, 6] [µg/mL] | Escherichia coli MCR-1 Af45 MIC [2, 6] [µg/mL] | Klebsiella pneumoniae SSI3010 MIC [3, 6] [µg/mL] | Compound | Hemolysis at 0.2 g/L [4, 5] [%] | Hemolysis at 0.2 g/L [4] [%]
0.125 | 0.125 | 0.5 | – | – | – | CC[C@H](C)[C@H](NC(=O)[C@@H]1C[C@@H](O)CN1C(=O)[C@@H](NC(=N)N)C(C)C)C(=O)N[C@H]1CCNC(=O)CC[C@@H](C(=O)N[C@@H](Cc2ccc(O)cc2)C(=O)O)NC(=O)[C@H](CCN)NC(=O)[C@H](CCN)NC(=O)[C@H](C(C)C)NC(=O)[C@@H](CCN)NC(=O)[C@H]([C@@H](C)O)NC(=O)[C@H](CCN)NC(=O)[C@H](CCCNC(=N)N)NC(=O)[C@H](CC(N)=O)NC(=O)[C@H]([C@@H](C)O)NC(=O)[C@H](Cc2ccc(O)cc2)NC1=O [Example 136, Gua-Val-Hyp-Ile-Dab-Tyr-Thr-Asn-Arg-Dab-Thr-^DDab-Val-Dab-Dab-Glu-Tyr] ({Val(Nα-amidino)}-[Hyp]I[Dab]YTNR[Dab]T[dDab]V[Dab][Dab]EY-OH; lactam 3-14) | <1 | –
– | – | – | 0.25 | 0.25 | 0.5 | Val-Hyp-Ile-Pen-Tyr-Ser-Asn-Arg-Dab-Thr-^DDab-Lys-Dab-Ser-Cys-Tyr (V[Hyp]I[Pen]YSNR[Dab]T[dDab]K[Dab]SCY; disulfide 4-15) [Example 57] | – | <1
